As a reminder, the melting point is the temperature of the solid-liquid transition. As for `CCOC(=O)C(C)(C)Oc1ccc(OCc2oc(-c3ccc(C(F)(F)F)cc3)cc2C(=O)O)cc1`, the melting point is 87 to 88 °C.

In the case of `COC(=O)c1ccc(NC(=O)OCC2c3ccccc3-c3ccccc32)cc1O`, the melting point lay in the range of 156 to 159 °C.

`CCC(C)NC(=O)C1=C(C(=O)Nc2cc(OC3CCCC3)c(Cl)cc2F)CCCC1` (centres undefined): the melting point lay within 174 to 175 °C.

Turning to `CCC(CC)n1nnc2c(Cl)nc(C)cc21`, the melting point fell in the range of 78 to 79 °C.

`CCOC(=O)COc1cc2c(c(O)c1Cl)C(=O)CC1(CCCCC1)O2` displayed a melting point of 103 to 104 °C.

The compound `O=C/C=C/c1cc2ccccc2s1` returned a melting point of 88 °C.

As to `CCOC(=O)C(C#N)=CNc1ncccc1CC`, the melting point was 122 to 125 °C.

As for `CN(C)c1ccc(NS(=O)(=O)c2cccc(-c3ccc(F)cc3)c2)cc1`, the melting point was 158 to 160 °C.

Consider `CC(=O)OCc1ccc(Sc2ccccc2C(=O)O)c([N+](=O)[O-])c1`, for which the melting point fell in the range of 150 to 151 °C.

`CN1CCC(=C2c3ccc(Cl)cc3CCc3cccnc32)CC1`: the melting point fell in the range of 116 to 119 °C.

`CCN(CC)C(=O)Nc1ccc(S(=O)(=O)N2C(=O)C(NCCO)(c3ccccc3Cl)c3cc(Cl)ccc32)cc1` (centres undefined): the melting point was 192 to 193 °C.

`Cc1cncnc1N1CCC(C(N)=O)CC1` displayed a melting point of 182 to 184 °C.

Consider `Cc1onc(-c2ccc(F)cc2)c1-c1ccc(S(N)(=O)=O)c(F)c1`, for which the melting point was 180 to 182 °C.

For `CCOCc1cc2c([N+](=O)[O-])cccc2cn1`, the melting point was 54 °C.

Compound `CCn1c(=O)n(OCc2ccccc2)c(=O)c2cc(F)c(N3CCCC3)cc21` registered a melting point of 174 to 176 °C.

`O=C(O)c1ccc(-c2ccc(-c3cc(-c4ccc(-c5ccc(C(=O)O)cc5)cc4)cc(-c4ccc(-c5ccc(C(=O)O)cc5)cc4)c3)cc2)cc1` gave a melting point of 326 °C.

Compound `CNS(=O)(=O)Cc1ccc(NC(=N)c2ccc3[nH]cc(CCN)c3c2)cc1` yielded a melting point of 63 to 65 °C.

For `Cc1cn([C@H]2CC[C@H](CC(=O)O)C[C@@H]2NC(=O)OC(C)(C)C)c(=O)[nH]c1=O`, the melting point was in the range of 231 to 233 °C.

Consider `Cc1nc(Sc2ccc(C(F)(F)F)cn2)sc1CC(=O)O`, for which the melting point fell in the range of 113 to 114 °C.

Turning to `Cc1cccc(N2CCN(c3ccc(S)nn3)CC2)c1`, the melting point stood at 174 °C.

Turning to `CCCOc1ccccc1-c1nc2nnc(N)nc2c(=O)[nH]1`, the melting point was in the range of 322 to 325 °C.

On to `N#CC1(c2ccccc2)C2CC3CC(C2)CC1C3` (centres undefined), for which the melting point is 120 to 122 °C.

As to `CC(C)Oc1cccc(-c2nn(C(C)c3oc4ccccc4c(=O)c3-c3cccc(F)c3)c3ncnc(N)c23)c1` (centres undefined), the melting point was 153 to 157 °C.

`CNCC1CC(C)(O)c2ccc(S(=O)(=O)c3ccccc3)cc2O1` (centres undefined): the melting point was in the range of 164 to 165 °C.

Compound `O=C(c1ccc(Nc2ccnc3cc(C(F)(F)F)ccc23)cc1)N1CCN(c2ncccn2)CC1` displayed a melting point of 246 to 248 °C.

Compound `Cc1cc(-c2nc3cccnn3c2-c2ccnc(NC(=O)Nc3ccsc3)c2)ccc1F` returned a melting point of 234 to 235 °C.

On to `O=C1C(=O)N(c2ccc(Cl)c(Cl)c2)C(=O)N1c1cccc(C(F)(F)F)c1`, for which the melting point is 116 °C.

Consider `CCCN(CCC)S(=O)(=O)c1cccc(C2(O)CCC(=O)N2C)c1` (centres undefined), for which the melting point fell in the range of 58 to 60 °C.

Compound `COc1cc(C(=O)C(=O)O)cc(OC)c1OCCOc1ccc2ccccc2c1` came in with a melting point of 114 to 116 °C.

Regarding `c1cnc(NCCN2CCC(=C3c4ccccc4CCn4ncnc43)CC2)nc1`, the melting point worked out at 162 °C.

In the case of `CC(C)(C)OC(=O)NS(=O)(=O)N1CCC(F)(F)CC1`, the melting point lay within 82 to 83 °C.

Turning to `Nc1ccc(N2C(=O)c3ccc(Cl)cc3C2=O)c(CO)c1`, the melting point was 228 to 230 °C.

As for `CC1COCc2nc3c(N)nc4cc(CCS(C)(=O)=O)ccc4c3n21` (centres undefined), the melting point was 205 to 206 °C.

Regarding `CCOC(=O)c1cc(CC(C(=O)OCC)C(=O)OCC)c2ccccn2c1=O`, the melting point lay in the range of 105 to 108 °C.

Turning to `Cc1cc(-n2ccnc2)c2cccc(OCc3c(Cl)ccc(-n4cccc4CNC(=O)C=Cc4ccc(C(=O)O)cc4)c3Cl)c2n1`, the melting point was 166 to 170 °C.

On to `O=CCNc1[nH]c(-c2ccc(F)cc2)nc1-c1ccccc1`, for which the melting point was 256 to 258 °C.

`O=Cc1cccc2c1nc(-c1c(F)cccc1F)n2Cc1c(F)cccc1F` returned a melting point of 151 to 153 °C.

Regarding `COc1cccc(Cc2cc3ccccc3s2)c1`, the melting point lay within 74 to 75.5 °C.

On to `CON=C(C1=NCCS1)c1ccccc1COc1cc(C)ccc1C`, for which the melting point is 79 to 82 °C.

Regarding `Nc1c(Cl)cc(C(O)CNC2CC2)cc1C(F)(F)F` (centres undefined), the melting point is 138 to 139 °C.

The compound `O=C(O)[C@H](Cc1c[nH]c2ccccc12)NS(=O)(=O)c1ccc2c(c1)Sc1ccccc1O2` gave a melting point of 120 to 130 °C.

The compound `O=C1CC2SCCCN12` (centres undefined) displayed a melting point of 145 to 147 °C.

Compound `CCN(CC)C(=O)NC(C)(CC)N=NC(C)(CC)NC(=O)N(CC)CC` (centres undefined) returned a melting point of 215 to 220 °C.

Take `O=C1CC(c2ccccc2)N(C(=O)Cl)N1` (centres undefined): the melting point was 146 °C.

Compound `Cc1nc(N2CCCC(Cc3ccc(F)cc3)C2=O)sc1C(=O)NCc1ccccc1` (centres undefined) gave a melting point of 154 to 155 °C.

Take `O=C(Nc1nc(C(Cl)(Cl)Cl)ns1)c1c(Cl)cccc1Cl`: the melting point stood at 209 °C.

On to `N#CCc1ccc(CC(=O)O)c(S(N)(=O)=O)c1`, for which the melting point fell in the range of 125 to 129 °C.

As to `CN(C)c1nc2n(n1)CC1=CSC(=O)C1=N2`, the melting point fell in the range of 295 to 298 °C.

The compound `O=C(COc1cccnc1)NCCCCC1CCN(C(c2ccccc2)c2ccccc2)CC1` returned a melting point of 103 to 105 °C.

In the case of `Cc1ccc(C)n1-c1ccc(C=CC(=O)O)cc1`, the melting point is 184 to 185 °C.

The compound `CCC(=O)COc1cc(N)c(Cl)cc1C(=O)NCCN(CC)CC` came in with a melting point of 103 to 104 °C.

With `COCC(=O)c1cc(-c2ccc(S(C)(=O)=O)cc2)n(-c2ccc(F)cc2)n1`, the melting point lay within 151 to 154 °C.

`CCOC(=O)C(=NOC1CCCCC1)c1csc(N)n1` came in with a melting point of 125 to 126 °C.

Compound `COc1cc2c(=O)c(C)cn3c4cc(Br)ccc4c(c1)c23` displayed a melting point of 201 to 204 °C.

Take `COC(=O)c1nc(-c2ccc(Cl)c(F)c2F)nc(N)c1Br`: the melting point lay in the range of 175 to 178 °C.

Regarding `Cc1cc(SC2=C(O)CC(CCC3CCCO3)(C(C)C)OC2=O)c(C(C)(C)C)cc1CO` (centres undefined), the melting point was in the range of 57 to 59 °C.

Compound `O=C(c1ccc(I)cc1)c1ccc2[nH]c(=O)cc(-c3cccc(Cl)c3)c2c1` returned a melting point of 251 °C.

Regarding `COc1c(O)c(C=O)cc2c1OCC2`, the melting point is 71 to 72 °C.

Regarding `CN1C(=O)N(c2nnc(C(C)(C)C)s2)C(=O)C1(C)OC(N)=O` (centres undefined), the melting point worked out at 165 °C.

Turning to `CNC(=O)c1cccnc1CC(=O)c1ccc(Cl)cc1`, the melting point fell in the range of 162 to 163 °C.

`OCC=Cc1ccc(-c2cnc(CSCCOc3ccccc3)o2)cc1` returned a melting point of 73 to 74 °C.

With `O=[N+]([O-])c1ccc(NS(=O)(=O)c2cccc(C(F)(F)F)c2)c(Cl)c1`, the melting point was 126 to 127 °C.

`O=CC1CC1(c1cccc(F)c1)c1cccc(F)c1` (centres undefined) had a melting point of 49 to 51 °C.

Turning to `CNC1=Nc2ccc(Cl)cc2C(c2ccccc2Cl)=NC1`, the melting point fell in the range of 216 to 219 °C.

With `COc1ccc(OCCC#N)cc1`, the melting point was determined as 58 °C.

With `CC(c1ccccc1)n1cncc1C#N` (single isomer, unassigned; (+)), the melting point fell in the range of 97 to 99 °C.

`CCC(=O)NCC1CC1c1cccc2nc(C)cn12` (centres undefined) came in with a melting point of 88 to 90 °C.

With `CCC1CCC(CCc2ccccc2NC(=O)C=Cc2ccccc2)N(C)C1` (centres undefined), the melting point is 91 to 98 °C.

For `O=C(O)CN1C(=O)C(NC(=O)C(Cc2ccccc2)SC(=O)c2ccccc2)CCc2ccccc21` (centres undefined), the melting point lay within 170 to 171 °C.

In turn, `CCC(=O)C(CCCOc1ccc2c(c1)OCO2)C(=O)CC` yielded a melting point of 68 °C.

As for `O=[N+]([O-])c1ccc(C=Cc2ccc(N(CCCCCCO)CCCCCCO)cc2)cc1`, the melting point was 126 to 128 °C.

As for `COc1cc2[nH]c(N3CCCN(C(=O)N4CCOCC4)CC3)nc(=O)c2c(C)c1OC`, the melting point lay in the range of 237 to 238 °C.

Regarding `Cc1ncc2cc(-c3c(Cl)cccc3Br)c(N)nc2n1`, the melting point is 272 to 274 °C.

In the case of `CCCc1c2c(cc3c(=O)cc(C(=O)O)oc13)CCCC2`, the melting point stood at 235 °C.

On to `CC(C)(C)OC(=O)Cc1ccc(O)cc1`, for which the melting point lay within 95 to 96 °C.

`N#Cc1ccc(-c2ccc(Br)o2)nc1` came in with a melting point of 196 °C.

Consider `COC(=O)c1nc(-c2nccs2)cc(NC(C)=O)c1Cl`, for which the melting point lay in the range of 187 to 188 °C.

In turn, `Cc1ccc(C(=O)NC(NC(=S)Nc2ccc(F)cc2F)C(F)(F)F)cc1` (centres undefined) showed a melting point of 202 to 204 °C.

For `CC(C)C(=O)Nc1nc(N)cnc1-c1cc(Cl)cc(Cl)c1Cl`, the melting point lay in the range of 105 to 108 °C.

Consider `O=C(OCc1cc(OCCCO)cc(OCCCO)c1)c1ccccc1`, for which the melting point lay within 78 to 82 °C.

As for `COCc1cnc2c([N+](=O)[O-])cccc2c1Cl`, the melting point lay in the range of 91 to 94 °C.

`CC1=CC(=Cc2cc(C)cc(C3(C)CCCCC3)c2OCc2ccccc2)C(O)C(C2(C)CCCCC2)=C1` (centres undefined) had a melting point of 97 to 99 °C.

The compound `FC(F)(F)c1cccc(C=Cc2ccccc2)c1` yielded a melting point of 127 to 129 °C.

Consider `CCOCc1nc2c(N)nc3ccccc3c2n1CC1(NC(=O)OC(C)(C)C)CCCCC1`, for which the melting point fell in the range of 82 to 92 °C.

On to `COc1c(C(c2ccccc2)c2ccccc2)ccc2ccccc12`, for which the melting point is 119 to 121 °C.

For the compound `NC(=S)Nc1ccccc1C1CC1`, the melting point fell in the range of 152 to 154 °C.

Turning to `COc1ccc2cc(O)c(C(C)(C)O)cc2c1`, the melting point lay within 148 to 150 °C.

On to `O=C(Nc1cccc(C(F)(F)F)c1)N1CCN(Cc2ccc(Nc3ccnc4cc(C(F)(F)F)ccc34)cc2)CC1`, for which the melting point is 198 to 200 °C.

Compound `CC(=O)Nc1nc(CCc2ccc(N)cc2)c(C(=O)NCc2ccc([N+](=O)[O-])cc2)s1` yielded a melting point of 120 to 121 °C.

These data come from a melting point compilation (Tetko et al.; mined from patent text by program, amines drawn as free bases though some values may be those of a salt).
